Assay results: US4361579A, “Organogermanium compounds” (Yoshitomi Pharmaceutical Industries, Ltd., priority 1979, dated 1982)

What was measured:
[1] = test system: rosette forming cells (RFC) in spleen; assay: Activity for Antibody Production: rosette forming cells (RFC) in spleen after sensitization with sheep red blood cells; type: in vivo, mouse (C57B1/6); conditions: Control = 100, 7 days after sensitization
Protocol: (§1) C57B1/6 mice (6 week old, 20 g) were sensitized by intraperitoneally administering sheep red blood cells of 5×10^8 /0.1 ml. Compounds tested were given orally on the same day and next day of the sensitization. Seven days after the sensitization, the number of plaque forming cells (PFC) in spleen and of rosette forming cells (RFC) in spleen and thymus were measured in a usual manner.

[2] = test system: plaque forming cells (PFC) in spleen; assay: Activity for Antibody Production: plaque forming cells (PFC) in spleen after sensitization with sheep red blood cells; type: in vivo, mouse (C57B1/6); conditions: Control = 100, 7 days after sensitization
Protocol: as §1

[3] = test system: rosette forming cells (RFC) in thymus; assay: Activity for Antibody Production: rosette forming cells (RFC) in thymus after sensitization with sheep red blood cells; type: in vivo, mouse (C57B1/6); conditions: Control = 100, 7 days after sensitization
Protocol: as §1

Adjuvant Arthritis = assay: Prophylactic Effect on Adjuvant Arthritis (hind feet swelling); type: in vivo, rat (Lewis male); conditions: day 1 to day 20, hind feet swelling at 28 days
Protocol: The tails of Lewis male rats (250 g) were injected mycobacterium butyricum (0.5 mg/0.1 ml). Compounds tested were orally administered daily from the adjuvant inoculation day (day 1) to day 20. Swellings in the hind feet were measured at 28 days after the adjuvant inoculation.

emigrating leukocytes = assay: Potentiating Activity for Leukocyte Migration (CMC pouch); type: in vivo, rat (male Donryu); conditions: 6 hours, vs control group
Protocol: The test was performed according to the method described by H. Ishikawa et al in "Yakugaku Zasshi (Journal of the Pharmaceutical Society of Japan)", vol. 88, 1472 (1968).
Male Donryu rats weighing about 150 g were divided into groups of 4 to 5 animals each. Five ml of 2% suspension of carboxymethylcellulose (CMC) in physiological saline was injected subcutaneously in the supra-scapular area. Compounds tested (0.4 ml/rat) were administered into the CMC pouch immediately after the injection of CMC suspension. Six hours later, 0.1 ml of fluid in the CMC pouch was collected and mixed with 6 ml of 0.05% brilliant cresyl blue solution in phosphate buffer (pH 7.2). The suspension was put in a Burker chamber and the emigrating leukocytes were counted under a microscope. The percent potentiation was calculated as compared with the count in the control group.

rat = assay: Acute Toxicity (rat, per os); type: in vivo; conditions: 2000 mg/kg
From the text: | Acute Toxicity (rat, per os)

[4] = 30 mg/kg orally, *p < 0.05, **p < 0.01
[5] = 3 mg/kg orally, *p < 0.05, **p < 0.01

Substance	RFC in Spleen ([1]; 30 mg/kg orally, **p < 0.01)	PFC in Spleen ([2]; 30 mg/kg orally, *p < 0.05)	RFC in Thymus [3, 4]	Inhibition (%) (Adjuvant Arthritis; 25 mg/kg orally daily)	Inhibition (%) (Adjuvant Arthritis; 100 mg/kg orally daily)	Potentiation (%) (emigrating leukocytes; 20 mg/rat into the CMC pouch)	Potentiation (%) (emigrating leukocytes; 5 mg/rat into the CMC pouch)	Potentiation (%) (emigrating leukocytes; 10 mg/rat into the CMC pouch)	RFC in Spleen ([1]; 3 mg/kg orally, *p < 0.05)	PFC in Spleen ([2]; 3 mg/kg orally)	RFC in Thymus [3, 5]	further results
poly(carboxyethylgermanium sesquioxide) [Comparison, reference compound]	121	100	168	-18	15	13	–	–	–	–	–	–
polycondensation product of p-(N-ethyl-2-ethoxycarbonylacetylamino)phenylgermanium trihydroxide	–	–	–	–	–	96	87	–	–	–	–	Potentiation (%) (emigrating leukocytes; 0.25 mg/rat into the CMC pouch): 7%
polycondensation product of p-(N-ethyl-3-ethoxycarbonylpropionylamino)phenylgermanium trihydroxide [Compound D]	–	–	–	–	–	210	7	33	–	–	–	–
polycondensation product of p-(N-methyl-2-ethoxycarbonylacetylamino)phenylgermanium trihydroxide	703	175	431	48	–	91	–	16	346	125	284	RFC in Spleen ([1]; 1 mg/kg orally): 157; PFC in Spleen ([2]; 1 mg/kg orally): 110; Mortality (rat): 0/5; RFC in Thymus ([3]; 1 mg/kg orally, **p < 0.01): 315; Inhibition (%) (Adjuvant Arthritis; 10 mg/kg orally daily): 22%
polycondensation product of p-(N-methyl-3-carboxypropionylamino)phenylgermanium trihydroxide	–	–	–	35	53	47	–	26	86	68	218	–
polycondensation product of p-(N-methyl-3-ethoxycarbonylpropionylamino)phenylgermanium trihydroxide	108	81	248	5	31	–	87	–	–	–	–	Potentiation (%) (emigrating leukocytes; 2.5 mg/rat into the CMC pouch): 17%
polycondensation product of p-(N-methyl-4-carboxybutyrylamino)phenylgermanium trihydrodie	–	–	–	–	–	–	–	44	85	95	141	–
polycondensation product of p-(N-methyl-4-ethoxycarbonylbutyrylamino)phenylgermanium trihydroxide	–	–	–	–	–	56	–	–	–	–	–	–
polycondensation product of p-(N-methyl-m-methylbenzoylamino)phenylgermanium trihydroxide	–	–	–	–	–	55	–	46	–	–	–	–
